Structures can show the parent of a compound that is named as a salt.

The record followed here is patent US12686680B2, “Substituted pyrazolo[1,5-α]pyrimidines as CRF receptor antagonists” (Neurocrine Biosciences, Inc., priority 2019, dated 2026).

Series [1] is described as follows: Solubility determination of solid forms of Compound 1 in solvents (Example 52). Type of series: physicochemical. The text has this:
X-Ray Powder diffraction (XRPD), differential scanning calorimetry (DSC), thermal gravimetric analysis (TGA), and UV-Metric/pH-Metric Titration (SiriusT3) were used to characterize Form I of Compound 1. UPLC was used to evaluate solubility of each material in various vehicles.

Series [2] can be described thus: Solubility determination of Compound 1 Form I in various vehicles (Example 60). In kind it is physicochemical. As to the method: The solubility of Compound 1 Form I was evaluated in various vehicles in an attempt to achieve doses of 0.5 mg/mL (IV) and 1.0 mg/mL (PO). […] Vortex mixing and sonication were used to dissolve particles, then samples were transferred to 0.22 μm nylon centrifuge tube filters and centrifuged for approximately 2 minutes @10,000 rpm. All samples were diluted with the method diluent (if necessary) and analyzed by HPLC providing the results shown in the below Table.

As for `CCCN(Cc1ccc(-c2csc(N(C)C)n2)cc1)c1cc(C)nc2c(-c3cnc(N(C)C)cc3C)c(C)nn12` [Compound 1-4 (Maleate), 5-{7-[({4-[2-(dimethylamino)-1,3-thiazol-4-yl]phenyl}methyl)(propyl)amino]-2,5-dimethylpyrazolo[1,5-a]pyrimidin-3-yl}-N,N,4-trimethylpyridin-2-amine], the “Measured pH” value in series [1] (50 mM BB pH 9) was “pH 4.3”; in series [1] (50 mM CB pH 3) it was “pH 3.2”; in series [1] (50 mM CB pH 4), “pH 3.9”; in series [1] (50 mM CB pH 6), “pH 5.3”; in series [1] (50 mM PB pH 2) it was “pH 2.5”; in series [1] (50 mM PB pH 8), “pH 6.2”. For the same compound, the “Measured pH” value in series [1] (100% H2O) is recorded as “pH 3.4”. In addition, the Solubility result in series [1] (50 mM BB pH 9) is on record as “Below”; in series [1] (50 mM CB pH 3), 0.3 mg/mL FB; in series [1] (50 mM CB pH 4) it was 0 mg/mL FB; in series [1] (50 mM CB pH 6), “Below”; in series [1] (50 mM PB pH 2), 3.9 mg/mL FB; in series [1] (50 mM PB pH 8), “Below”. Moreover, the Solubility in series [1] (100% H2O) is 0 mg/mL FB; in series [1] (ACN), 3.6 mg/mL FB; in series [1] (Acetone), 4.1 mg/mL FB; in series [1] (DMSO), over 2.5 mg/mL FB; in series [1] (EtOAc), 1.2 mg/mL FB; in series [1] (EtOH), 6.5 mg/mL FB. In addition, the values for the Solubility in series [1] (IPA) and in series [1] (MeOH) were 1.9 mg/mL FB and 27.1 mg/mL FB, respectively.
On to `CCCN(Cc1ccc(-c2csc(N(C)C)n2)cc1)c1cc(C)nc2c(-c3cnc(N(C)C)cc3C)c(C)nn12` [Compound 1-2 (FB), 5-{7-[({4-[2-(dimethylamino)-1,3-thiazol-4-yl]phenyl}methyl)(propyl)amino]-2,5-dimethylpyrazolo[1,5-a]pyrimidin-3-yl}-N,N,4-trimethylpyridin-2-amine], for which the “Measured pH” value in series [1] (50 mM CB pH 3) is reported as “pH 3.3”; in series [1] (50 mM CB pH 4), “pH 4.1”; in series [1] (50 mM CB pH 5) it was “pH 5.0”; in series [1] (50 mM CB pH 6), “pH 6.1”; in series [1] (50 mM PB pH 2) it was “pH 3.1”; in series [1] (50 mM PB pH 7) it was “pH 7.1”. For the same compound, the “Measured pH” value in series [1] (50 mM PB pH 8) was “pH 8.1”; in series [1] (100% H2O), “pH 8.3”. For the same compound, the Solubility in series [1] (50 mM CB pH 3) was 1.7 mg/mL FB; in series [1] (50 mM CB pH 4) it was 0 mg/mL FB; in series [1] (50 mM CB pH 5), 0 mg/mL FB; in series [1] (50 mM CB pH 6) it was 0 mg/mL FB; in series [1] (50 mM PB pH 2), 3.3 mg/mL FB; in series [1] (50 mM PB pH 7) it was 0 mg/mL FB. The Solubility in series [1] (50 mM PB pH 8) and in series [1] (100% H2O) was 0 mg/mL FB throughout.
As for `CCCN(Cc1ccc(-c2csc(N(C)C)n2)cc1)c1cc(C)nc2c(-c3cnc(N(C)C)cc3C)c(C)nn12` [Compound 1 Form I, 5-{7-[({4-[2-(dimethylamino)-1,3-thiazol-4-yl]phenyl}methyl)(propyl)amino]-2,5-dimethylpyrazolo[1,5-a]pyrimidin-3-yl}-N,N,4-trimethylpyridin-2-amine], the “Final/Actual pH” value in series [2] (50 mM Citrate, pH 2) is 3.1; in series [2] (50 mM Citrate, pH 3), 3.3; in series [2] (50 mM Citrate, pH 4) it was 4.1; in series [2] (50 mM Citrate, pH 5), 5.0; in series [2] (50 mM Citrate, pH 6), 6.1; in series [2] (50 mM Citrate, pH 7), 7.1. The “Final/Actual pH” value in series [2] (50 mM Phosphate, pH 8) came out at 8.1; in series [2] (1% Poloxamer 188 in Water), 8.0; in series [2] (1% TW80 in Water) it was 7.6; in series [2] (10% HP-β-CD in Water), 8.2; in series [2] (100% Water), 8.3. Besides, the “Solubility <USP 34>” value in series [2] (50 mM Citrate, pH 2) is recorded as “Slightly Soluble”; in series [2] (50 mM Citrate, pH 3) it was “Slightly Soluble”; in series [2] (50 mM Citrate, pH 4) it was “Practically”; in series [2] (50 mM Citrate, pH 5), “Practically”; in series [2] (50 mM Citrate, pH 6), “Practically”; in series [2] (50 mM Citrate, pH 7), “Practically”. The “Solubility <USP 34>” value is on record as “Practically” in series [2] (50 mM Phosphate, pH 8); “Practically” in series [2] (1% Poloxamer 188 in Water); “Practically” in series [2] (1% TW80 in Water); “Practically” in series [2] (10% HP-β-CD in Water); “Practically” in series [2] (100% Water). Further, the “[Compound 1]” value in series [2] (50 mM Citrate, pH 2) is listed as 3.3 mg/mL; in series [2] (50 mM Citrate, pH 3), 1.7 mg/mL; in series [2] (50 mM Citrate, pH 4) it was about 0 mg/mL; in series [2] (50 mM Citrate, pH 5) it was about 0 mg/mL; in series [2] (50 mM Citrate, pH 6), about 0 mg/mL; in series [2] (50 mM Citrate, pH 7), about 0 mg/mL. Moreover, the “[Compound 1]” value in series [2] (50 mM Phosphate, pH 8) is “Below”; in series [2] (1% Poloxamer 188 in Water), about 0 mg/mL; in series [2] (1% TW80 in Water), about 0 mg/mL; in series [2] (10% HP-β-CD in Water), about 0 mg/mL; in series [2] (100% Water), about 0 mg/mL.
Consider `CCCN(Cc1ccc(-c2csc(N(C)C)n2)cc1)c1cc(C)nc2c(-c3cnc(N(C)C)cc3C)c(C)nn12` [Compound 1-1 (FB), 5-{7-[({4-[2-(dimethylamino)-1,3-thiazol-4-yl]phenyl}methyl)(propyl)amino]-2,5-dimethylpyrazolo[1,5-a]pyrimidin-3-yl}-N,N,4-trimethylpyridin-2-amine], for which the Solubility in series [1] (50 mM CB pH 3) is listed as 1.7 mg/mL FB; in series [1] (50 mM CB pH 4), 0 mg/mL FB; in series [1] (50 mM CB pH 5), 0 mg/mL FB; in series [1] (50 mM CB pH 6), 0 mg/mL FB; in series [1] (50 mM PB pH 1), 14.9 mg/mL FB; in series [1] (50 mM PB pH 2), 6.5 mg/mL FB. The Solubility in series [1] (50 mM PB pH 7) and in series [1] (100% H2O) was 0 mg/mL FB each time. Moreover, the “Measured pH” value in series [1] (50 mM CB pH 4) was “pH 4.1”; in series [1] (50 mM CB pH 5) it was “pH 4.4”; in series [1] (50 mM CB pH 6), “pH 6.1”; in series [1] (50 mM PB pH 2), “pH 2.7”; in series [1] (50 mM PB pH 7) it was “pH 7.0”; in series [1] (100% H2O), “pH 6.7”.
For the compound `CCCN(Cc1ccc(-c2csc(N(C)C)n2)cc1)c1cc(C)nc2c(-c3cnc(N(C)C)cc3C)c(C)nn12` [Compound 1-3 (HCl), 5-{7-[({4-[2-(dimethylamino)-1,3-thiazol-4-yl]phenyl}methyl)(propyl)amino]-2,5-dimethylpyrazolo[1,5-a]pyrimidin-3-yl}-N,N,4-trimethylpyridin-2-amine], the “Measured pH” value was “pH 8.7” in series [1] (50 mM BB pH 9); “pH 3.2” in series [1] (50 mM CB pH 3); “pH 3.9” in series [1] (50 mM CB pH 4); “pH 5.8” in series [1] (50 mM CB pH 6); “pH 2.9” in series [1] (50 mM PB pH 2); “pH 7.5” in series [1] (50 mM PB pH 8). In series [1] (100% H2O), the “Measured pH” value is given as “pH 3.3”. Further, the Solubility result in series [1] (50 mM BB pH 9) is given as “Below”; in series [1] (50 mM CB pH 3), 0.8 mg/mL FB; in series [1] (50 mM CB pH 4), 0 mg/mL FB; in series [1] (50 mM CB pH 6), 0 mg/mL FB; in series [1] (50 mM PB pH 2) it was 4.4 mg/mL FB; in series [1] (50 mM PB pH 8), 0 mg/mL FB. For the same compound, the Solubility in series [1] (100% H2O) is 0.4 mg/mL FB; in series [1] (ACN), 0.7 mg/mL FB; in series [1] (Acetone), 0.4 mg/mL FB; in series [1] (DMSO) it was 0.9 mg/mL FB; in series [1] (EtOAc), 0.1 mg/mL FB; in series [1] (EtOH), 5.3 mg/mL FB. Also, the Solubility was found to be 0.8 mg/mL FB in series [1] (IPA) and 32.3 mg/mL FB in series [1] (MeOH).
On to `CCCN(Cc1ccc(-c2csc(N(C)C)n2)cc1)c1cc(C)nc2c(-c3cnc(N(C)C)cc3C)c(C)nn12` [Compound 1-5 (Mesylate), 5-{7-[({4-[2-(dimethylamino)-1,3-thiazol-4-yl]phenyl}methyl)(propyl)amino]-2,5-dimethylpyrazolo[1,5-a]pyrimidin-3-yl}-N,N,4-trimethylpyridin-2-amine], for which the “Measured pH” value in series [1] (50 mM BB pH 9) is reported as “pH 3.2”; in series [1] (50 mM CB pH 3) it was “pH 3.4”; in series [1] (50 mM CB pH 4) it was “pH 4.0”; in series [1] (50 mM CB pH 6), “pH 5.1”; in series [1] (50 mM PB pH 2), “pH 3.0”; in series [1] (50 mM PB pH 8), “pH 6.7”. Besides, the “Measured pH” value in series [1] (100% H2O) is “pH 3.5”. Moreover, the Solubility in series [1] (50 mM BB pH 9) was 0.2 mg/mL FB; in series [1] (50 mM CB pH 3) it was 1.0 mg/mL FB; in series [1] (50 mM CB pH 4) it was 0.1 mg/mL FB; in series [1] (50 mM CB pH 6) it was 0 mg/mL FB; in series [1] (50 mM PB pH 2), 4.7 mg/mL FB; in series [1] (50 mM PB pH 8) it was 0 mg/mL FB. In addition, the Solubility in series [1] (100% H2O) is listed as 0.8 mg/mL FB; in series [1] (ACN), 3.1 mg/mL FB; in series [1] (Acetone), 1.0 mg/mL FB; in series [1] (DMSO), over 2.1 mg/mL FB; in series [1] (EtOAc) it was 0.6 mg/mL FB; in series [1] (EtOH), 16.6 mg/mL FB. Moreover, the results for the Solubility in series [1] (IPA) and in series [1] (MeOH) were 2.3 mg/mL FB and 134.4 mg/mL FB, respectively.
